# Experimental data: patent publication US5399562A, “Indolones useful as serotonergic agents” (G. D. Searle & Co., priority 1994, dated 1995)
# Structures can show the parent of a compound that is named as a salt.
# Assays:
# [1] = target: 5-HT4 receptor (Rattus norvegicus, UniProt Q62758); assay: cell-based; conditions: rat esophagus TMM contracted with carbachol (3 μM), 37° C., cumulative addition; read-out: 5-HT4 Agonism (Rat TMM) In Vitro Assay: EC50 values
# Procedure: (§1) The 5-HT4 agonist activity was determined in the in vitro rat tunica muscularis mucosae (TMM) assay described herein. (Baxter et al., Naunyn Schmied Arch. Pharmacol, 1991, 343, 439). […] One with skill in the art could determine the activity of the compounds of the present invention using the methodology of these assays, described herein, without undue experimentation.
# Agonist activity was determined utilizing relaxation of carbachol-contracted rat tunica muscularis mucosae (TMM). One 2 cm segment of intrathoracic esophagus proximal to the diaphragm was removed from male rats, weighing approximately 300 gm, and the outer muscle layers removed. The inner tunica muscularis mucosa was mounted under 0.2-0.3 g of tension in a tissue bath containing oxygenated Tyrode's solution at 37° C. […] Following a 30 min equilibrium period, tissues were isometrically contracted with carbachol (3 μM) to obtain a tonic contraction. A stable plateau was obtained within 20 min when test compound was added cumulatively to relax the muscle strip. EC50 values were obtained for each compound in tissues from 5 rats.
# [2] = system: gastric emptying; conditions: Buchheit et al. 1985; cited from earlier work
# [3] = system: guinea pig stomach muscle strips; conditions: cited from earlier work; for guinea pig stomach muscle strip contraction in vitro: Buchheit et al. 1985
# [4] = target: T1, 5-HT3 receptor (Rattus norvegicus, UniProt P35563); assay: 5-HT3 radioligand receptor binding assay ([3H]-GR65630), rat brain cortex membranes
# T1 construct: Brain cortices were obtained from male rats and a membrane fraction prepared by standard techniques; from tissue; host or cells: male rat brain cortex membranes
# T1 sequence (P35563 24-483): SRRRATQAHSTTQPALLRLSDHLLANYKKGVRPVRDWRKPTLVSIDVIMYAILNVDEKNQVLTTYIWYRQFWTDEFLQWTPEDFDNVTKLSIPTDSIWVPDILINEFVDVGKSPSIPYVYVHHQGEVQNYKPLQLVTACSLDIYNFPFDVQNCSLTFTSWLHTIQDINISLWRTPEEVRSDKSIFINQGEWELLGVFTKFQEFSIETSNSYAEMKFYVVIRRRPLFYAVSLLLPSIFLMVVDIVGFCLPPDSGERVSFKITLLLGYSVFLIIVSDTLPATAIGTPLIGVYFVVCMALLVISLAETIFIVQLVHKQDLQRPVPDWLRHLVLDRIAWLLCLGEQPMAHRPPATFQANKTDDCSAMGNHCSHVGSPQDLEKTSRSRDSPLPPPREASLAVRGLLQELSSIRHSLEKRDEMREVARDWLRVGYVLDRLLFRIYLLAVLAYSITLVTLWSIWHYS
# Procedure: as §1
# Procedure: GR65630 binds to the 5-HT3 receptor. Brain cortices were obtained from male rats and a membrane fraction prepared by standard techniques. 0.04 mg of membrane prep was incubated with 0.2 nM [^3 H]-GR65630 for 66 minutes at 22° C. […] Membranes were filtered and washed 3 times and the filters were counted to determine [^3 H]-GR65630 specifically bound. [Kilpatrick GJ, Jones BJ and Tyers MB, Identification and Distribution of 5-HT3 Receptors in Rat Brain Using Radioligand Binding Assay, Nature, 330, 746-748 (1987)].
# [5] = system: 5-HT4 receptor; conditions: Dumuis et al. 1989, mouse embryonic colliculi neurons; cited from earlier work
# [6] = system: 5-HT4 receptors; conditions: Craig and Clarke; cited from earlier work
# [7] = system: myenteric neurons; conditions: Nemeth and Gullikson 1989; cited from earlier work
# [8] = system: man; conditions: Gore et al. 1990, man; cited from earlier work
# [9] = system: gastric emptying; conditions: Gidda et al. 1988; cited from earlier work
# [10] = system: man; conditions: Talley et al. 1989, man; cited from earlier work
# [11] = system: dogs; conditions: cited from earlier work; for antroduodenal motility in dogs: Van Nueten et al. 1989
# [12] = system: GI tract; conditions: various animal models; cited from earlier work
# [13] = system: 5-HT3; conditions: in vivo; cited from earlier work
# Chain of 5-HT4 receptor (Rattus norvegicus, UniProt Q62758) (Q62758 whole entry): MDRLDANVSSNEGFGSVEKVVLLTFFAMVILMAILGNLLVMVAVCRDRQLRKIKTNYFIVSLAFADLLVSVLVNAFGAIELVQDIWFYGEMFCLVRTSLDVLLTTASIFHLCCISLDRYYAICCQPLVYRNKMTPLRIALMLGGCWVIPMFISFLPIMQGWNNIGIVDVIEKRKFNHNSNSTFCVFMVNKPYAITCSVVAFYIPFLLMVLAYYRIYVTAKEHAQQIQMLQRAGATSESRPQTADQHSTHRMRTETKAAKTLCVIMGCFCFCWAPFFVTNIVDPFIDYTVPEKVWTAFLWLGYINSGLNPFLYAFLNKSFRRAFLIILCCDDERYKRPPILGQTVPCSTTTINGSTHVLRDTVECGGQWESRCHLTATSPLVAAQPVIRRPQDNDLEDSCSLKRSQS
smiles,measurement,setting,value
"O=C(NCC12CCCN1CCC2)N1C(=O)C2(CC2)c2ccccc21 [Example 6, 2'-oxo-N-[(hexahydro-1H-pyrrolizin-7a(5H)-yl)-methyl]spiro[cyclopropane-1,3'-[3'H]indole]1'(2'H)carboxamide, monohydrochloride]",EC50,[1],> 10000 nM
"CC1(C)C(=O)N(C(=O)NC[C@@H]2CCN3CCC[C@@H]23)c2ccccc21 (relative stereo) [Example 8, Exo-2,3-dihydro-3,3-dimethyl-N-[(hexahydro-1H-pyrrolizin-1S-yl)methyl]-2-oxo-1H-indole-1carboxamide, hydrate hydrochloride]",EC50,[1],> 10000 nM
CN1[C@@H]2CC[C@H]1C[C@@H](OC(=O)c1cc(Cl)cc(Cl)c1)C2 [MDL 72222],gastric emptying rates in vivo,[2],increases
same,guinea pig stomach muscle strip contraction in vitro,[3],enhanced
"CN1[C@@H]2CC[C@H]1C[C@@H](NC(=O)N1C(=O)C3(CC3)c3ccccc31)C2 [Example 2, Endo-1',2'-dihydro-N-(8-methyl-8-azabicyclo[3.2.1 octan-3-yl)-2'-oxo-spiro[cyclopropane-1,3'-(3'H)-indole]-1'-carboxamide, hydrate hydrochloride]",Ki,[4],4.1 nM
same,EC50,[1],790 nM
"O=C(NCC12CCN(CC1)CC2)N1C(=O)C2(CC2)c2ccccc21 [Example 5, N-(1-azabicyclo[2.2.2]octan-4-ylmethyl)-2'-oxo-spiro[cyclopropane-1,3'-[3'H]indole]-1'(2'H)-carboxamide, monohydrochloride]",EC50,[1],> 10000 nM
"CN1[C@@H]2CC[C@H]1C[C@@H](NC(=O)N1C(=O)C(C)(C)c3ccccc31)C2 [Example 1, Endo-2,3-dihydro-3,3-dimethyl-N-(8-methyl-8-azabicyclo[3.2.1]octan-3-yl)-2-oxo-1H-indole-1-carboxamide, hydrochloride hydrate]",Ki,[4],4 nM
same,EC50,[1],1210 nM
"O=C(N[C@H]1[C@@H]2CC3C[C@H]1CN(C3)C2)N1C(=O)C2(CC2)c2ccccc21 [Example 4, Syn-N-(1-azatricyclo[3.3.1.1^3,7]decan-4-yl)-2'-oxo-spiro[cyclopropane-1,3'-[3'H]indole]-1'(2'H)-carboxamide, monohydrochloride]",EC50,[1],2530 nM
Cc1[nH]cnc1CCC(=O)c1cn(C)c2ccccc12 [GR65630],Bmax,"[4]; [3H]-GR65630 radioligand, rat brain cortex membranes",154 fmol/mg protein
same,% Specific Binding,"[4]; [3H]-GR65630 radioligand, non-specific binding with 1 uM ICS 205-930",70%
COc1cc(N)c(Cl)cc1C(=O)NC1CCN2CCCC1C2 (centres unmarked) [BRL-24924],"prokinetic activity, correlation with agonist activity at 5-HT4 receptor",[5],correlate with agonist activity
same,"peristaltic reflex evoked, receptor mechanism",[6],mediated through agonism at 5-HT4 receptors
same,"ability to depolarize myenteric neurons, relation to 5-HT3 antagonism",[7],unrelated to their properties of 5-HT3 antagonism
Cc1nccn1CC1CCc2c(c3ccccc3n2C)C1=O (centres unmarked) [GR38032],GI transit,[8],failed to accelerate
same,colonic transit in man,[8],slowed
same,gastric emptying,[9],enhanced
same,effect on GI transit in man (conclusion),[10],does not have a major effect on GI transit in man
same,mouth-to-cecum transit times,[10],did not alter
same,small intestinal transit times,[10],did not alter
CN1[C@@H]2CC[C@H]1C[C@@H](OC(=O)c1c[nH]c3ccccc13)C2 [ICS 205-930],gastric emptying rates in vivo,[2],increases
same,gastric emptying,[9],enhanced
same,effect on responses to cisapride when coadministered,"[11]; Van Nueten et al. 1989, coadministered with cisapride",did not affect
same,antroduodenal motility in dogs,[11],did not
same,guinea pig stomach muscle strip contraction in vitro,[3],enhanced
COc1cc(N)c(Cl)cc1C(=O)NC1CCN(CCCOc2ccc(F)cc2)CC1OC (centres unmarked) [Cisapride],"prokinetic activity, correlation with agonist activity at 5-HT4 receptor",[5],correlate with agonist activity
same,antroduodenal motility in dogs,[11],enhanced
same,"ability to depolarize myenteric neurons, relation to 5-HT3 antagonism",[7],unrelated to their properties of 5-HT3 antagonism
"NCCc1c[nH]c2ccc(O)cc12 [Serotonin, 5-hydroxytryptamine]",peristalsis in the GI tract,[12],promote peristalsis
same,"peristaltic reflex evoked, receptor mechanism",[6],mediated through agonism at 5-HT4 receptors
"O=C(N[C@@H]1[C@@H]2CC3C[C@H]1CN(C3)C2)N1C(=O)C2(CC2)c2ccccc21 [Example 3, Anti-N-(1-azatricyclo[3.3.1.1^3,7]decan-4-yl)-2'-oxo-spiro[cyclopropane-1,3'-[3'H]indole]-1'(2'H)-carboxamide, monohydrochloride]",EC50,[1],2220 nM
"O=C(NCCC12CCCN1CCC2)N1C(=O)C2(CC2)c2ccccc21 [Example 7, 2'-oxo-N-[2-(hexahydro-1H-pyrrolizin-7a(5H)yl)ethyl]spiro[cyclopropane-1,3'-[3'H]indole-1'(2'H)-carboxamide, monohydrochloride]",EC50,[1],7920 nM
COc1cc(N)c(Cl)cc1C(=O)NC1CN2CCC1CC2 (centres unmarked) [zacopride],gastric emptying,[9],enhanced
CCN(CC)CCNC(=O)c1cc(Cl)c(N)cc1OC [metoclopramide],5-HT3-mediated Bezold Jarisch reflex,[13],blocks
same,gastric emptying rates in vivo,[2],increases
same,guinea pig stomach muscle strip contraction in vitro,[3],enhanced
same,electrical-field stimulated contractions in guinea pig stomach strips,[3]; Gunning and Naylor 1985,enhanced
